Results from ChEMBL document CHEMBL1201862, “PubChem BioAssay data set” (2004).
Active and inactive are the calls of the source.

Key:
Type in all cases: functional
[1] = test system: P388/ADR; experiment: cells; settings: Mus musculus
[2] = test system: SN12K1; experiment: cells; settings: Homo sapiens
[3] = test system: P388; experiment: cells; settings: Mus musculus
[4] = target: Induced myeloid leukemia cell differentiation protein Mcl-1 (Homo sapiens, UniProt Q07820)
[5] = target: T1, Short transient receptor potential channel 4 (Mus musculus, UniProt Q9QUQ5); experiment: calcium entry via TRPC4 opening agents – cell-based, HEK293 TRPC4/mu-opioid, Fluo-4 calcium, dose response (AID 434937)
T1 sequence (Q9QUQ5 whole entry): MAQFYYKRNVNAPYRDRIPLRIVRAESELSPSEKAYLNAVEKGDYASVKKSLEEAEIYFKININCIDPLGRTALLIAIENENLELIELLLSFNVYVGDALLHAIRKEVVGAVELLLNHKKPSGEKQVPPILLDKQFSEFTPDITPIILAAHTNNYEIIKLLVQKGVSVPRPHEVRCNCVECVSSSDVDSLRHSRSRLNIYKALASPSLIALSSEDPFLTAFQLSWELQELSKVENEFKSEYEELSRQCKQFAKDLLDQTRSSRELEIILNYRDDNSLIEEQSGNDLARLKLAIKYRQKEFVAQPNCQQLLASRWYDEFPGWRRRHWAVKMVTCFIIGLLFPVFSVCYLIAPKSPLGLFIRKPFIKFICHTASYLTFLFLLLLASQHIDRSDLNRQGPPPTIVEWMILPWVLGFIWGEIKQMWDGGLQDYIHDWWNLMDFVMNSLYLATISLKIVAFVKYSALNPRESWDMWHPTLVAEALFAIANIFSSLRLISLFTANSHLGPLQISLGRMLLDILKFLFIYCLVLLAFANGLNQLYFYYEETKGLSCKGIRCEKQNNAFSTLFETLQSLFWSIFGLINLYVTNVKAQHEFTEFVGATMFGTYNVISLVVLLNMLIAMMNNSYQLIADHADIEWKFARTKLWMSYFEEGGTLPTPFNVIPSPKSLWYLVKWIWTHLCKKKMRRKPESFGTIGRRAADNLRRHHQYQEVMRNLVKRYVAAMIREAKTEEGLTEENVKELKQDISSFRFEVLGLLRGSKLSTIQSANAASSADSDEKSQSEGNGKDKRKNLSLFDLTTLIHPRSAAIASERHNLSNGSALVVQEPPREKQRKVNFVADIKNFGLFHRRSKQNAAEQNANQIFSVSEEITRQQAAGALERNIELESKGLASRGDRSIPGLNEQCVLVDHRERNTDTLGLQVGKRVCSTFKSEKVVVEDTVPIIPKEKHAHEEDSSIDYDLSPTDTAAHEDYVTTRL

[6] = target: T2, Leucine aminopeptidase (Plasmodium falciparum 3D7, UniProt Q8IL11); experiment: P. falciparum M17LAP inhibitors, primary screen, biochemical, fluorogenic H-Leu-NHMec substrate, 1536-well (AID 1619)
T2 sequence (Q8IL11 whole entry): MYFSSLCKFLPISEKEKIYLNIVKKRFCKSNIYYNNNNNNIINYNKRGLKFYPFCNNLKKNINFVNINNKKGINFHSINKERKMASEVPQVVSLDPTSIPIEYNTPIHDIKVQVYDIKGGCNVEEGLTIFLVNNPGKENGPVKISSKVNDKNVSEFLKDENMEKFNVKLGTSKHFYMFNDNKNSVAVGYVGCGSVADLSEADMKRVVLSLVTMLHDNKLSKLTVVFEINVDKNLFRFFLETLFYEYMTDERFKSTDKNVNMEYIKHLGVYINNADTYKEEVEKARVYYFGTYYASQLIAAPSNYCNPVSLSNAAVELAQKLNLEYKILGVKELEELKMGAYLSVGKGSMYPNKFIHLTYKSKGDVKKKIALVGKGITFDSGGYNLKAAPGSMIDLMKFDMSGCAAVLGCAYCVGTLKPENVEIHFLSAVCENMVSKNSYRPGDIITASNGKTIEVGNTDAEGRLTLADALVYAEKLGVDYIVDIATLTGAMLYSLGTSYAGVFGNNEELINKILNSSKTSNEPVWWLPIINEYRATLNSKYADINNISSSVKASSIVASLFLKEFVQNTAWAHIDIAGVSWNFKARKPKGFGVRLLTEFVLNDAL

[7] = reduction of Shn3 3'UTR-driven luciferase in osteoblasts – cell-based, Clone20 osteoblasts, firefly luciferase, cherry-picked, dose response (AID 624132);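 further: firefly luciferase luminescence from reporter carrying the Shn3 3'UTR in osteoblasts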
[8] = loss of viability in HepG2 cells – cell-based, CellTiter-Glo, cherry-picked, cytotoxicity control for Shn3 inhibitor project, dose response (AID 624134)
[9] = non-specific 3'UTR reporter inhibition in Clone20-Shn3RL – cell-based, Renilla luciferase, cherry-picked, counter-screen for Shn3 inhibitor project, dose response (AID 624133)

Induced myeloid leukemia cell differentiation protein Mcl-1, sequence (Q07820 whole entry): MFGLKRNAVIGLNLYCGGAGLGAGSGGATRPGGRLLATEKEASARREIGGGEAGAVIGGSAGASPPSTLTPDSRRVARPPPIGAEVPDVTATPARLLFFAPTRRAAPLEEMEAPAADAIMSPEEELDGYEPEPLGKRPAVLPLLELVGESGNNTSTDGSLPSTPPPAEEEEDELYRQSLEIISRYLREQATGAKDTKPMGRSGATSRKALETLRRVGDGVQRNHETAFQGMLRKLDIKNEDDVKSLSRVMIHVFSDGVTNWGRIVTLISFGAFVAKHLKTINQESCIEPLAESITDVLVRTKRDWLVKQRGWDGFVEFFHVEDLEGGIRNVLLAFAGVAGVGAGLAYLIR

SMILES	GI50 [1]	GI50 [2]	GI50 [3]	also measured
CC(C)(C)OC(=O)NC1CCC(C(C)(C)C)CC1 (stereo not given)	30 µM (inactive)	45.4 µM (inactive)	15.9 µM (inactive)	–
CCC(C)N1C(=O)/C(=C/c2ccc3c(c2)CCN3CCCCl)C(=O)NC1=S (stereo not given)	–	–	–	IC50 [4]: 5.31 µM (active)
CCOC(=O)[C@@H]1CCNC[C@@H]1c1ccccc1	–	–	–	EC50 [5]: 3.35 µM (active)
Nc1nc(SCc2nc(-c3ccccc3)no2)[nH]c(=O)c1-c1ccccc1	–	–	–	IC50 [6]: 7.2 µM (active)
Cc1csc(SC(C)C(=O)Nc2ccc(Cl)cn2)n1 (stereo not given)	–	–	–	IC50 [6]: 6.63 µM (active)
CC1Sc2ccc(S(=O)(=O)N3CCC(C(=O)Nc4cccc(Cl)c4)CC3)cc2NC1=O (stereo not given)	–	–	–	AC50 [7]: 3.27 µM (active); AC50 [8]: 44.6 µM (active); AC50 [9]: 8.77 µM (active)
C#CC[N+](CCO)(CCO)CCCCCCCCCCCCCCCCCC	8.55 µM (inactive)	13 µM (inactive)	1.08 µM (active)	–
CC1OC(CO)(n2cnc3c(N)ncnc32)C(O)C1O (stereo not given)	> 100 µM (inactive)	> 100 µM (inactive)	> 100 µM (inactive)	–
CC(=O)OC1C(O)C(C)OC(OC(=O)C2CCC3C(C2)OC2(CC(OC(=O)/C=C/c4ccccc4)C(C)CO2)C32CO2)C1OC1OC(C)C(O)C(O)C1O (stereo not given)	20.9 µM (inactive)	0.0348 µM (active)	0.306 µM (active)	–
Cc1onc(-c2ccccc2Cl)c1C(=O)N1CCN(C/C=C/c2ccccc2)CC1	–	–	–	EC50 [5]: 5.96 µM (active)
CCC/C=C/C=C/C(=O)OC1/C(=C/C(=O)OC)CC2CC(C(C)O)OC(=O)CC(O)CC3CC(OC(C)=O)C(C)(C)C(O)(CC4C/C(=C/C(=O)OC)CC(/C=C/C(C)(C)C1(O)O2)O4)O3 (stereo not given)	–	–	2.16 µM (inactive)	–
Cc1cc(C)c(-c2csc(NC(=O)CCCc3nc(O)c4ccccc4n3)n2)c(C)c1	–	–	–	AC50 [7]: 2.97 µM (active); AC50 [8]: > 70 µM (inactive); AC50 [9]: 5.38 µM (active)
CC1SC(C)C(=O)N(CC(=O)NCc2ccc(F)cc2)C1=O (stereo not given)	–	–	–	IC50 [6]: 31.4 µM (active)
